Test results as given in patent US9408848B2, “Fluorescent CDK inhibitors for treatment of cancer” (Georgetown University, priority 2008, dated 2016).
Entries after “also recorded” stand apart in the source; their conditions may differ. Read-outs that look alike come from different tables or passages of the source.

Tests used:
MDA-MB-231 [1] = test: Cell viability assay (WST-1); type: cell-based, human; conditions: read-out: IC50 (concentration yielding 50% growth inhibition), MDA-MB-231, WST-1, 48 h
Experimental: (§1) (10%), 2 mM L-glutamine, and 50 μg/mL each of antibiotics, namely penicillin, streptomycin, and neomycin at 37° C. in a humidified incubator containing 5% CO2
(§2) Briefly human breast cancer cells were seeded into a 96-well plate at 3000 cells per well in DMEM containing 10% FBS. Following 24 hours attachment period, compounds were dissolved in DMSO and serially diluted in tissue culture media and added to the cells in triplicate, and incubated for 48 h at 37° C. Control cells were treated with equal amount of DMSO. After 48 h incubation, cell viability was measured by WST-1 assay according to the manufacturer's instructions (Roche). […] The formazan absorbance, which correlates to the number of living cells, was measured at 450 nm and 630 nm as reference filter using a microplate reader. (Ultramark, Microplate Imaging System, Bio-Rad). The IC50 was calculated from the graph of the log of the compound concentration versus the fraction of the surviving cells.

MCF-7 [2] = test: Cell viability assay (WST-1); type: cell-based, human; conditions: MCF-7, WST-1, 48 h
Experimental: as §1, §2

MCF-7 [3] = test: Effect on multidrug resistant cell lines, IC50 72 hours; type: cell-based; conditions: Homo sapiens, MCF7, 72 h; MCF-7, Breast
Source text: (§3) The effect of VMY-1-103 on multidrug resistant cell lines was studied and compared with paclitaxel. Table 4 represents the IC50 of the compounds in the individual cell lines along with the ratio of the difference.

CL 10.3 = test: as above; type: cell-based; conditions: for IC50: 72 h, CL 10.3, Breast (MDR); for CL 10.3 IC50/MCF-7 IC50: ratio, 72 hours; for activity in multidrug resistance cell line: MCF7 versus CL 10.3
Source text: as §3

phospho-Cdc2 = test: Western blot of G2/M cell cycle proteins; type: cell-based, human; conditions: MDA-MB-231, 10 μM, 1-24 h
Experimental: The expression levels principal component proteins, such as, phospho-Cdc2, Cdc2 and cyclin B were specific assessed.
Western blotting was performed according to literature procedure. […] Lysates were cleared by centrifugation at 12000 rpm for 15 min at 4° C. and protein was estimated by detergent compatible BCA protein assay kit (Pierce). Equivalent amounts of total proteins were resolved by SDS-PAGE (10%) and transferred to PVDF membrane. Membranes were blocked by 5% non-fat powdered milk in TBST overnight. Membranes were incubated with indicated primary antibodies for 2 hours followed by HRP-conjugated secondary antibodies for 1 hr and developed using enhanced chemiluminescence kit (Perkin Elmer).

CDK1/cyclinB = molecular target: T1, CDK1/cyclinB (Homo sapiens, UniProt P06493); test: Kinase assay ([γ-33P]-ATP, histone H1); type: biochemical; conditions: 0.1 µM
T1 construct: purchased Millipore, Dundee, UK (screening service)
T1 sequence (P06493 whole entry): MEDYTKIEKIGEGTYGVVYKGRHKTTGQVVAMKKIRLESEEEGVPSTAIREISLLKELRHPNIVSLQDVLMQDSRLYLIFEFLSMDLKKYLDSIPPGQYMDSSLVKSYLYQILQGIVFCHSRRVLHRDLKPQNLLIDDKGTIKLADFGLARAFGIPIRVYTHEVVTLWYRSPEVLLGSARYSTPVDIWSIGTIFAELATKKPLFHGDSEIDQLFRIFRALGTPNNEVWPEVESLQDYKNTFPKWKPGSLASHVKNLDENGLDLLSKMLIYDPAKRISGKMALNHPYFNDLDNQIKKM
T1 sequence (P14635 whole entry partner): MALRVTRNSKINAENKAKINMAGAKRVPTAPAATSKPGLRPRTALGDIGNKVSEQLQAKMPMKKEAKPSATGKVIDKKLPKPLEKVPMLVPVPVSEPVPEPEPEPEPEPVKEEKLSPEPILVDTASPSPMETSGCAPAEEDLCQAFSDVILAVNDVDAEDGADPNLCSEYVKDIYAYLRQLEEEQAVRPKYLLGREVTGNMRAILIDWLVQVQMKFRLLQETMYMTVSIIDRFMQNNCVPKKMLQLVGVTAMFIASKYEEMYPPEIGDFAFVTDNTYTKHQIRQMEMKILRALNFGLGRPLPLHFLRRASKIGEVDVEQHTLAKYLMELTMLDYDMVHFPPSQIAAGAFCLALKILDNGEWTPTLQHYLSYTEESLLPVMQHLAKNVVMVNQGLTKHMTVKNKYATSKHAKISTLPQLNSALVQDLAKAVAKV
Experimental: (§4) The final reaction was carried out in a 25 μL solution.
(§5) Briefly assays were performed with a Biomek 2000 Laboratory Automation Workstation in a 96-well format (Beckman instruments, Palo Alto, Calif., U.S.A) for 40 min at ambient temperature in 25 μL incubations using [γ-^33P]-ATP. In a final reaction volume of 25 μL corresponding CDK/cyclin (h) (5-10 mU) was incubated with 8 mM MOPS pH 7.0, 0.2 mM EDTA, 0.1 mg/mL histone H1, 10 mM MgAcetate and [γ-^33P-ATP](specific activity approx. 500 cpm/pmol, concentration as required). The reaction was initiated by the addition of the MgATP mix. After incubation for 40 min at room temperature, the reaction was stopped by the addition of 5 μL of a 3% phosphoric acid solution.

CDK3/cyclinE = molecular target: T2, CDK3/cyclinE (Homo sapiens, UniProt Q00526); test: Kinase assay ([γ-33P]-ATP, histone H1); type: biochemical; conditions: compound 0.1 μM
T2 construct: purchased Millipore, Dundee, UK (screening service)
T2 sequence (Q00526 whole entry): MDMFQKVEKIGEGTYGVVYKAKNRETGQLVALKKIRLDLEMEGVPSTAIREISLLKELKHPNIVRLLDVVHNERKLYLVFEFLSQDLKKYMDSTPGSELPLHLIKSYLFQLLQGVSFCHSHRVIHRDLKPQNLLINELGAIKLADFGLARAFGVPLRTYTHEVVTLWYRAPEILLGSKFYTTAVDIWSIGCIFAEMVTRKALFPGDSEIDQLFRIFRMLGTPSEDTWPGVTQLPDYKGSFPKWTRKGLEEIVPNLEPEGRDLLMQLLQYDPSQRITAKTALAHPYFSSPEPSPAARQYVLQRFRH
T2 sequence (P24864 whole entry partner): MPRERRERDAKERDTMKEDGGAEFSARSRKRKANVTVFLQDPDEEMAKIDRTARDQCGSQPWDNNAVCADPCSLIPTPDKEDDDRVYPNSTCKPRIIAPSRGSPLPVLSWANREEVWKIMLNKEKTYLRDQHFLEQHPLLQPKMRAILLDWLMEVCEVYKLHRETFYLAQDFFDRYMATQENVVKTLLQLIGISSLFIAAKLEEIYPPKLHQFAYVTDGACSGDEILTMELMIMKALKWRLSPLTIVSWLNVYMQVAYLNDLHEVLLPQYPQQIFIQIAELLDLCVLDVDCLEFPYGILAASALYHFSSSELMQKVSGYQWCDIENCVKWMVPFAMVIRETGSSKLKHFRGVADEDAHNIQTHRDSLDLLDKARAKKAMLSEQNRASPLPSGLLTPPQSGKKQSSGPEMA
Experimental: as §4, §5

MDA-MB-231 [4] = test: Cell cycle analysis by flow cytometry (propidium iodide); type: cell-based, human; conditions: for % G1 / % S / % Sub-G1: MDA-MB-231, 24 hrs, 5 μM
Experimental: (§6) 5 μM concentrations were used for all drugs tested. The cells were exposed to the vehicle (DMSO) or […] of the CDK inhibitors for 24 hrs. The cell cycle distribution was then assessed using standard procedures.

MCF-7 [5] = test: as above; type: cell-based, human; conditions: for % G1 / % S / % Sub-G1: MCF-7, 24 hrs, 5 μM
Experimental: as §6

CDK7/cyclinH/MATI = molecular target: T3, CDK7/cyclinH/MATI (Homo sapiens, UniProt P50613); test: Kinase assay ([γ-33P]-ATP, histone H1); type: biochemical; conditions: for inhibition at 0.1 µM: read-out: % inhibition of kinase activity, CDK7/cyclinH/MATI
T3 construct: purchased Millipore, Dundee, UK (screening service)
T3 sequence (P50613 whole entry): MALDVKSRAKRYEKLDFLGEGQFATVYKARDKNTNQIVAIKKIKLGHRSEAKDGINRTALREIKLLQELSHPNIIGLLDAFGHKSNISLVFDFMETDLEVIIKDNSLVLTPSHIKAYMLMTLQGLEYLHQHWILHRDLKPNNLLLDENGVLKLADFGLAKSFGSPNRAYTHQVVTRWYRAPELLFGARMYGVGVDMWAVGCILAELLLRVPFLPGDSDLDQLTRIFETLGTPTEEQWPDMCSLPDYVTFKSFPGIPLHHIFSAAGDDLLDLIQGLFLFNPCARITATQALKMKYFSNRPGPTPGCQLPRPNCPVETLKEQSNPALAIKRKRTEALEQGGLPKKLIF
T3 sequence (P51946 whole entry partner): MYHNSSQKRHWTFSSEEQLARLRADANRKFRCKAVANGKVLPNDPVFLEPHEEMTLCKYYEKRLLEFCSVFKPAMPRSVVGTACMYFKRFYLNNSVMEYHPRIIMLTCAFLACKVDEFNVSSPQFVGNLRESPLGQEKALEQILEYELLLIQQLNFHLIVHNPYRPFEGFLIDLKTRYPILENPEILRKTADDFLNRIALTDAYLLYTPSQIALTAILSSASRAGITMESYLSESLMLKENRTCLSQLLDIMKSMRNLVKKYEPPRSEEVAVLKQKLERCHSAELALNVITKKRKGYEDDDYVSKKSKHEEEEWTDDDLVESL
T3 sequence (P51948 whole entry partner): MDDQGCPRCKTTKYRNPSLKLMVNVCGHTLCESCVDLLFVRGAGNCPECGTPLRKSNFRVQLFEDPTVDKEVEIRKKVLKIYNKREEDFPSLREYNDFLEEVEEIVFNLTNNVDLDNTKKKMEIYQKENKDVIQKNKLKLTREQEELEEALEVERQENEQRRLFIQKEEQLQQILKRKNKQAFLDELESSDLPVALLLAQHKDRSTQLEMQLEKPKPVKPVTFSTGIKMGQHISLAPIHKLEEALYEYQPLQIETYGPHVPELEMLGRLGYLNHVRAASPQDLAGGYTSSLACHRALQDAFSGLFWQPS
Experimental: . The final reaction was carried out in a 25 μL solution. The respective kinases (at […] were incubated with 8 mM MOPS (pH 7.0), 0.2 mM EDTA, 0.1 mg/ml histone H1, 10 mM MgAcetate and [γ-33P-ATP] (specific activity approximately 500 cpm/pmol, concentration as required). The reaction was then initiated by the addition of the MgATP mix. The reaction was stopped after 40 min of incubation by adding 5 μL of a 3% phosphoric acid solution. 10 μL of the reaction was spotted onto a P30 filter mat and washed 3 times for 5 min in 75 mM phosphoric acid and one in methanol prior to drying and counted radioactivity by scintillation counting. […]. Table 1 summarizes the cytotoxic effects of VMY compounds and its controls on breast cancer cell line.
as §5, with “Kinase selectivity of compounds VMY-1-101 and VMY-1-103 were screened at Millipore, Dundee, UK. Briefly” for “Briefly”, “solution. From the reaction, 10 μL was spotted onto a P30 filtermat and washed three times for 5 minutes in 75 mM phosphoric acid and once in methanol prior to dying and scintillation counting.” for “solution.”

MDA-MB-231 cells [6] = test: Apoptotic signaling, Western blot of apoptosis related proteins; type: cell-based, human
Experimental: In order to understand whether VMY-1-101 and VMY-1-103 compounds were able to induce apoptotic cell death, the expression of anti- and pro-apoptotic proteins in MDA-MB-231 cells following treatment with 10 μM drugs for 48 hours was evaluated first. […] This is further confirmed with proapoptotic 116 kDa poly (ADP-ribose) polymerase protein (PARP) into its 89-kDa fragments. […].
Western blotting was performed according to literature procedure. In brief, cell pellets were collected at the indicated times after treatment with compounds, suspended in 100 μL of lysis buffer (50 mM Tris-HCl, 150 mM NaCl, 1 mM EGTA, 1 mM EDTA, 20 mM NaF, 100 mM Na3VO4, 0.5% NP-40, 1% Triton X-100, 1 mM PMSF, 5 μg/ml aprotinin, 5 μg/ml leupeptin), vortexed twice and incubated in an ice bath for 30 min. Lysates were cleared by centrifugation at 12000 rpm for 15 min at 4° C. and protein was estimated by detergent compatible BCA protein assay kit (Pierce). Equivalent amounts of total proteins were resolved by SDS-PAGE (10%) and transferred to PVDF membrane. Membranes were blocked by 5% non-fat powdered milk in TBST overnight. Membranes were incubated with indicated primary antibodies for 2 hours followed by HRP-conjugated secondary antibodies for 1 hr and developed using enhanced chemiluminescence kit (Perkin Elmer).

MDA-MB-231 cells [7] = test: Reversibility of antiproliferative effect (24 h/MC/48 h, cell cycle by flow cytometry); conditions: MDA-MB-231, 5 μM and 10 μM, 24 h then 48 h drug free medium
Experimental: The cell cycle distribution was then analyzed by flow cytometry.
The effect of CDK inhibitors on cell cycle progression was analyzed by flow cytometry. […] Cells were trypsinized, centrifuged (2000 rpm) and cell pellets were collected. […] The cell cycle distribution was evaluated on DNA plots using the Modfit software (Verity softwarehouse, Topsham, Me.).

IC50 (MDA-MB-231 [1]; Homo sapiens)	IC50 (MCF-7 [3])	IC50 (CL 10.3)	CL 10.3 IC50/MCF-7 IC50 (CL 10.3)	SMILES	expression of phospho-Cdc2 (T161, Y15) (phospho-Cdc2)	% G1 (MDA-MB-231 [4])	% S (MDA-MB-231 [4])	% Sub-G1 (MDA-MB-231 [4])	% G1 (MCF-7 [5])	% S (MCF-7 [5])	% Sub-G1 (MCF-7 [5])	other results
	0.002 µM	47.5 µM	2375	CC(=O)O[C@H]1C(=O)[C@@]2(C)[C@H]([C@H](OC(=O)c3ccccc3)[C@]3(O)C[C@H](OC(=O)[C@H](O)[C@@H](NC(=O)c4ccccc4)c4ccccc4)C(C)=C1C3(C)C)[C@]1(OC(C)=O)CO[C@@H]1C[C@@H]2O [Paclitaxel, reference compound]								
4.06 ± 1.32 µM	4.5 µM	44.3 µM	9.8	CC(C)[C@H](CO)Nc1nc(Nc2ccc(C(=O)NCCNS(=O)(=O)c3cccc4c(N(C)C)cccc34)c(Cl)c2)c2ncn(C(C)C)c2n1 [VMY-1-103, 2-Chloro-N-[2-(5-dimethylamino-naphthalene-1-sulfonylamino)-ethyl]-4-[2-(1-hydroxymethyl-2-methyl-propylamino)-9-isopropyl-9H-purin-6-ylamino]-benzamide]	decrease the phosphorylation level of G2/M checkpoint proteins; also recorded: time-dependent decrease in expression of phospho-Cdc2	51.87 ± 0.80%	25.15 ± 0.53%	2.17 ± 0.18%	61.02 ± 0.28%	16.26 ± 0.24%	2.09 ± 0.08%	effect on cell cycle progression (G2/M phase) (MDA-MB-231 [4]; MDA-MB-231, 5, 10 μM, 24 hrs): induced the cell cycle progression in G2/M phase; effect on cell cycle progression (G2/M phase) (MCF-7 [5]; MCF-7, 5, 10 μM, 24 hrs): induced the cell cycle progression in G2/M phase; PARP cleavage (MDA-MB-231 cells [6]; MDA-MB-231, 10 μM, 48 hours): moderate cleavage of the 116-kDa full length PARP into an 89-kDa fragment; protein level of full length caspase 3 and 7 (MDA-MB-231 cells [6]; MDA-MB-231, 10 μM, 48 hours): decrease in protein level of full length caspase 3 and 7; inhibition at 0.1 µM (CDK7/cyclinH/MATI; compound 0.1 μM): 69 ± 2%; activity in multidrug resistance cell line (CL 10.3): moderate activity in a multidrug resistance cell line; activity in multidrug resistance cell line (CL 10.3; listed as VMY-103): comparable activity in both cell lines; substrate for p-glycoprotein (CL 10.3; inferred from MDR cell line (Table 4)): not a substrate for p-glycoprotein

Further lines, the compound ahead of its results:

SMILES	IC50 (MDA-MB-231 [1]; Homo sapiens)	IC50 (MCF-7 [3])	IC50 (CL 10.3)	CL 10.3 IC50/MCF-7 IC50 (CL 10.3)	expression of phospho-Cdc2 (T161, Y15) (phospho-Cdc2)	% G1 (MDA-MB-231 [4])	% S (MDA-MB-231 [4])	% Sub-G1 (MDA-MB-231 [4])	% G1 (MCF-7 [5])	% S (MCF-7 [5])	% Sub-G1 (MCF-7 [5])	other results
CN(C)c1cccc2c(S(=O)(=O)NCCN)cccc12 [Dansyl ethylenediamine, reference compound]	> 100 µM											IC50 (MCF-7 [2]; Homo sapiens, MCF7, read-out: IC50 (concentration yielding 50% growth inhibition)): > 100 µM
CC(C)[C@H](CO)Nc1nc(Nc2ccc(C(=O)O)c(Cl)c2)c2ncn(C(C)C)c2n1 [Purvalanol B, reference compound]					no affect on the phospho-Cdc2 expression; also recorded: does not show any affect on expression of phosphor-Cdc2	58.69 ± 0.54%	29.86 ± 0.70%	1.19 ± 0.01%	64.37 ± 0.57%	20.54 ± 0.57%	1.10 ± 0.03%	% inhibition of kinase activity, CDK1/cyclinB (CDK1/cyclinB): 78 ± 6%; % inhibition of kinase activity, CDK3/cyclinE (CDK3/cyclinE): 89 ± 0%; % inhibition of kinase activity, CDK7/cyclinH/MATI (CDK7/cyclinH/MATI; compound 0.1 μM): 66 ± 1%; IC50 (MDA-MB-231 [1]): > 100 µM; IC50 (MCF-7 [2]; read-out: IC50 (concentration yielding 50% growth inhibition)): > 100 µM
CC[C@H](CO)Nc1nc(NCc2ccccc2)c2ncn(C(C)C)c2n1 [Roscovitine, 2-(R)-(1-ethyl-2-hydroxyethylamino)-6-benzylamino-9-isopropylpurine, reference compound]						57.59 ± 0.44%	26.29 ± 0.32%	1.22 ± 0.06%	63.83 ± 0.58%	19.88 ± 0.74%	0.73 ± 0.02%	change in apoptosis protein levels (MDA-MB-231 cells [6]; MDA-MB-231, even at 40 μM): no change in protein levels; reversibility of G2/M arrest / antiproliferative effect (MDA-MB-231 cells [7]): went back to the normal stage after post incubation; inhibition at 0.1 µM (CDK7/cyclinH/MATI): 26 ± 5%
